{"source": "patent US12251459B2", "about": "“Compositions, formulations, and methods for hair treatment” (Oddity Labs, LLC, priority 2022, dated 2025)", "key": {"[1]": {"tested_on": "human hair follicle dermal papilla cells (hFDPC)", "test": "Human follicle dermal papilla cells (hFDPC) proliferation assay", "assay_type": "cell-based", "details": "hFDPCs supplemented with BIO, BMP-2 and FGFβ", "description": "In Table 8, A represents less than 20% of increased proliferation of hFDPCs, B represents 20-40%, and C represents larger than 40% of increased proliferation of hFDPCs."}, "[2]": {"tested_on": "follicle dermal papilla cells", "test": "Reactive oxygen species (ROS) activity in follicle dermal papilla cells", "assay_type": "cell-based", "details": "5 μg/mL, 24 hr, relative to vehicle control (0.1% v/v DMSO)", "description": "Normalized reactive oxygen species (ROS) activity in follicle dermal papilla cells were analyzed after treatment with 5 μg/mL example compounds relative to vehicle control (0.1% v/v DMSO) after 24 hr. The increase in ROS levels is harmful to cell homeostasis, structures, and functions and results in oxidative stress."}, "bacteria": {"tested_on": "bacteria", "test": "SOS chromotest (bacteria-based genotoxicity test, β-galactosidase activity)", "assay_type": "cell-based", "details": "varying concentrations; 4-NQ as known genotoxin", "description": "The SOS chromotest is a well-established bacteria-based test for genotoxicity.\n(§1) The safety/toxicology profiles of a compound or salt of the present disclosure was evaluated via a series of in vitro genotoxicity assays, including the SOS-chromotest to determine bacterial genotoxicity, and the TK.6 micronucleus assay to determine chromosomal damage and forward mutations. Standard reactive oxygen species (ROS) and caspase 3/7 assay were conducted to determine general cellular toxicity. Moreover, a series of sensitization tests were conducted to predict any potential skin sensitivity. These include the direct peptide reactivity assay to evaluate haptenization, the KeratinoSens reporter assay to determine potential sensitivity via the activation of a cytoprotective pathway, and an immunological assay using human immature monocyte-derived dendritic cells to evaluate any potential immunogenicity."}, "HepG2 cells": {"tested_on": "HepG2 cells", "test": "Caspase 3/7 activity in HepG2 cells", "assay_type": "cell-based", "details": "HepG2, >2-log concentration range, versus % v/v-matched DMSO", "description": "(§2) Cells were treated with either the example compounds or vehicle control containing correspondingly % v/v-matched amounts of DMSO spanning a >2-log concentration range. Data represents mean±s.d. and representative of at least 2 experimental replicates.\nas §2, with “HepG2 cells are an immortalized liver cell line commonly used to study apoptosis induced by small molecules. Cells” for “Cells”"}, "TK.6 lymphoblasts": {"tested_on": "TK.6 lymphoblasts", "test": "TK.6 micronucleus assay", "assay_type": "cell-based", "description": "as §1\nTK.6 lymphoblasts are a well-studied cell line commonly used for gene mutation analyses. They are heterozygous for the thymidine kinase gene (TK) and enable the detection of forward mutations and chromosomal damage, which manifests as micronuclei and are detectable via flow cytometry.\nTK.6 cells were dosed with the example compounds or a vehicle control (0.1% v/v DMSO) and cultured with or without S9 metabolic activation for 24 hr. […] Methyl methanesulfonate, a known genotoxic, alkylating agent was used as a positive control for micronuclei detection.\nThe micronucleus assay was also performed to determine if the compounds are genotoxic by evaluating the presence of micronuclei. […] In combination. […] I-17 elicited genotoxicity at >3.125 μg/mL."}, "Nrf2-ARE pathway": {"tested_on": "Nrf2-ARE pathway", "test": "KeratinoSens Nrf2-ARE reporter assay (ARE-luciferase)", "assay_type": "cell-based", "details": "cinnamic aldehyde as known sensitizing compound", "description": "as §1\nThe Nrf2-ARE pathway is a master regulator of cytoprotective responses to oxidative stress, and is an early indicator of skin sensitization. Nrf2 (nuclear factor erythroid 2-related factor) is a transcription factor that binds to antioxidant responsive elements (ARE). By fusing ARE to the light-producing luciferase gene, a KeratinoSens Nrf2-ARE reporter assay was performed whereby luciferase signal is directly correlated to Nrf2-ARE pathway activation. Normalized ARE-luciferase activity was measured using a known sensitizing compound (cinnamic aldehyde) and example compounds."}, "[3]": {"test": "Clinical consumer perception study", "assay_type": "in vivo, human", "description": "The clinical test was performed by Eurofins|CRL, Inc. The test followed established, standardized procedures for clinical testing designed to ensure the well-being of clinical study subjects and the generation of reliable study data. Subjects were female and ranged in age from 27-65 years. Subjects used a simple, water-based formula containing an example compound, VII-3 (at 0.02% v/v) every 2 days in the morning or night on dry or towel-dried hair. Approximately 2 mL was applied directly to the hairline. No randomization was required for the study and subjects were blinded to the name of the test material.\nPhotographs of subjects' hair were taken 6 weeks after the treatment with the representative compounds (FIG. 6). Subjects were female and ranged in age from 27-65 years. Subjects used a simple, water-based formula containing an example compound VII-3 (at 0.02% v/v) every 2 days in the morning or night on dry or towel-dried hair. Approximately 2 mL was applied directly to the hairline. No randomization was required for the study and subjects were blinded to the name of the test material. FIG. 6. highlights specific regions of the included participants' scalps, juxtaposing pictures taken before and after the study. Based on clinical surveys, 97% of women reported an improvement in their hair's appearance while 82% reported increased hair growth and thickness.\nAfter the conclusion of the study, subjects completed a Consumer perception questionnaire. Table 24 includes percentages of each response for the corresponding prompt in the questionnaire. The specific response choice is specified within the parentheses below the percentage."}, "[4]": {"tested_on": "Human follicle papilla cells", "test": "Functional stability: follicle papilla cell proliferation after pH and temperature pre-treatment of the compound", "assay_type": "cell-based", "details": "prepared in DMSO, DMI or 1:1 DMI/ethanol, diluted in pH-adjusted water, varying temperatures, 7 days; cells dosed 5 μg/mL, 48 hr", "description": "Compound VII-3 was prepared in various solvents (DMSO; dimethyl sulfoxide, DMI; dimethyl isosorbide, or a 1:1 mixture of dimethyl isosorbide and ethanol), the diluted in pH-adjusted water and left at varying temperatures for 7 days. Human follicle papilla cells were dosed at 5 μg/mL with the example compound and further supplemented with 6-bromoindirubin-39-Oxime (BIO), recombinant bone morphogenetic protein-2 (BMP-2), and basic fibroblast growth factor (FGFβ), whose combination was previously found to preserve in vivo dermal papilla gene signatures. Normalized proliferation follicle papilla cell proliferation was analyzed after 48 hr following the treatment with the example compound pre-treated across a range of pH conditions (FIG. 7A) and temperature conditions (FIG. 7B). Data represents mean±s.d. and representative of n=2 donors."}, "[5]": {"details": "response: I haven't noticed a change"}}, "data": [{"molecule": "C=CCc1cc(/C=C2\\C(=O)NC(=S)N(c3ccccc3OC)C2=O)cc(OCC)c1O", "note": "[I-18]", "values": [{"measurement": "Percent Increase Proliferation of hFDPCs (%)", "setting": "[1]", "value": "B (B represents 20-40%)"}, {"measurement": "Normalized reactive oxygen species (ROS) activity", "setting": "[2]", "value": "higher than other compounds"}]}, {"molecule": "CCC(=O)N1CCN(c2nnc(-c3ccc(C)cc3)c3ccccc23)CC1", "note": "[II-4, 1-Propanone, 1-[4-[4-(4-methylphenyl)-1-phthalazinyl]-1-piperazinyl]-]", "values": [{"measurement": "Percent Increase Proliferation of hFDPCs (%)", "setting": "[1]", "value": "B (B represents 20-40%)"}, {"measurement": "genotoxic effects in SOS chromotest (normalized β-galactosidase activity)", "setting": "bacteria", "value": "did not exhibit any genotoxic effects"}, {"measurement": "Normalized caspase 3/7 activity", "setting": "HepG2 cells", "value": "did not exhibit any caspase activation"}, {"measurement": "micronuclei formation / genotoxic effect in TK.6 cells", "setting": "TK.6 lymphoblasts", "value": "do not promote any micronuclei formation"}]}, {"molecule": "COC(=O)c1c(S(C)(=O)=O)[nH]c(-c2ccccc2)nc1=O", "note": "[VII-1, 5- Pyrimidinecarboxylic acid, 1,4-dihydro-6-(methylsulfonyl)-4-oxo-2-phenyl-, methyl ester]", "values": [{"measurement": "Percent Increase Proliferation of hFDPCs (%)", "setting": "[1]", "value": "C (C represents larger than 40% of increased proliferation of hFDPCs)"}, {"measurement": "sensitizing potential (normalized ARE-luciferase activity)", "setting": "Nrf2-ARE pathway", "value": "exhibited sensitizing potential"}, {"measurement": "genotoxic effects in SOS chromotest (normalized β-galactosidase activity)", "setting": "bacteria", "value": "did not exhibit any genotoxic effects"}, {"measurement": "Normalized caspase 3/7 activity", "setting": "HepG2 cells", "value": "did not exhibit any caspase activation"}, {"measurement": "micronuclei formation / genotoxic effect in TK.6 cells", "setting": "TK.6 lymphoblasts", "value": "do not promote any micronuclei formation"}]}, {"molecule": "CSc1nc(-c2ccco2)nn1S(C)(=O)=O", "note": "[VII-3, 1H-1,2,4-Triazole, 3-(2-furanyl)-1-(methylsulfonyl)-5-(methylthio)-]", "values": [{"measurement": "Percent Increase Proliferation of hFDPCs (%)", "setting": "[1]", "value": "B (B represents 20-40%)"}, {"measurement": "Since the beginning of the study, I have noticed a decrease of the number of hairs lost in the shower.", "setting": "[3]; response: Agree", "value": 53.1, "unit": "%"}, {"measurement": "Since the start of the study, I can see more hair in the areas where the serum was applied.", "setting": "[3]; response: Agree", "value": 53.1, "unit": "%"}, {"measurement": "Since the beginning of the study, I have noticed a decrease of the number of hairs lost in the shower.", "setting": "[3]; response: Disagree", "value": 6.3, "unit": "%"}, {"measurement": "Since the start of the study, I can see more hair in the areas where the serum was applied.", "setting": "[3]; response: Disagree", "value": 3.1, "unit": "%"}, {"measurement": "Because of the treatment I have received since the start of the study, the appearance of my hair is:", "setting": "[3]; response: Fuller", "value": 56.3, "unit": "%"}, {"measurement": "Since the beginning of the study, I have noticed a decrease of the number of hairs lost in the shower.", "setting": "[3]; [5]", "value": 21.9, "unit": "%"}, {"measurement": "Since the start of the study, I can see more hair in the areas where the serum was applied.", "setting": "[3]; [5]", "value": 31.3, "unit": "%"}, {"measurement": "Since the start of the study, how effective do you think the treatment has been in increasing your hair growth/thickness?", "setting": "[3]; response: Not effective at all", "value": 0, "unit": "%"}, {"measurement": "Since the start of the study, how effective do you think the treatment has been in slowing down your hair loss?", "setting": "[3]; response: Not effective at all", "value": 3.1, "unit": "%"}, {"measurement": "Since the start of the study, how effective do you think the treatment has been in increasing your hair growth/thickness?", "setting": "[3]; response: Not very effective", "value": 18.8, "unit": "%"}, {"measurement": "Since the start of the study, how effective do you think the treatment has been in slowing down your hair loss?", "setting": "[3]; response: Not very effective", "value": 15.6, "unit": "%"}, {"measurement": "Since the start of the study, how effective do you think the treatment has been in increasing your hair growth/thickness?", "setting": "[3]; response: Somewhat effective", "value": 71.9, "unit": "%"}, {"measurement": "Since the start of the study, how effective do you think the treatment has been in slowing down your hair loss?", "setting": "[3]; response: Somewhat effective", "value": 53.1, "unit": "%"}, {"measurement": "Because of the treatment I have received since the start of the study, the appearance of my hair is:", "setting": "[3]; response: Stronger", "value": 21.9, "unit": "%"}, {"measurement": "Since the beginning of the study, I have noticed a decrease of the number of hairs lost in the shower.", "setting": "[3]; response: Strongly Agree", "value": 18.8, "unit": "%"}, {"measurement": "Since the start of the study, I can see more hair in the areas where the serum was applied.", "setting": "[3]; response: Strongly Agree", "value": 12.5, "unit": "%"}, {"measurement": "Since the beginning of the study, I have noticed a decrease of the number of hairs lost in the shower.", "setting": "[3]; response: Strongly Disagree", "value": 0, "unit": "%"}, {"measurement": "Since the start of the study, I can see more hair in the areas where the serum was applied.", "setting": "[3]; response: Strongly Disagree", "value": 0, "unit": "%"}, {"measurement": "Because of the treatment I have received since the start of the study, the appearance of my hair is:", "setting": "[3]; response: Thicker", "value": 18.8, "unit": "%"}, {"measurement": "Because of the treatment I have received since the start of the study, the appearance of my hair is:", "setting": "[3]; response: Thinner", "value": 3.1, "unit": "%"}, {"measurement": "Since the start of the study, how effective do you think the treatment has been in increasing your hair growth/thickness?", "setting": "[3]; response: Very effective", "value": 9.4, "unit": "%"}, {"measurement": "Since the start of the study, how effective do you think the treatment has been in slowing down your hair loss?", "setting": "[3]; response: Very effective", "value": 28.1, "unit": "%"}, {"measurement": "Because of the treatment I have received since the start of the study, the appearance of my hair is:", "setting": "[3]; response: Weaker", "value": 0, "unit": "%"}, {"measurement": "Subjects with tight hairstyles who noticed less shedding", "setting": "[3]; water-based formula 0.02% v/v every 2 days, 6 weeks, 32 female subjects", "value": "28/32 (87%)"}, {"measurement": "Adverse effects", "setting": "[3]; water-based formula 0.02% v/v every 2 days, 6 weeks, 32 subjects completed", "value": "0/32 (0%)"}, {"measurement": "genotoxic effects in SOS chromotest (normalized β-galactosidase activity)", "setting": "bacteria", "value": "did not exhibit any genotoxic effects"}, {"measurement": "Normalized caspase 3/7 activity", "setting": "HepG2 cells", "value": "did not exhibit any caspase activation"}, {"measurement": "functional stability (normalized follicle papilla cell proliferation after pre-treatment of the compound)", "setting": "[4]", "value": "functionally stable across physiologically-relevant pH and temperature ranges"}]}, {"molecule": "COc1ccc(CCCc2nc3ccccc3[nH]2)cc1", "note": "[VII-14, 1H-Benzimidazole, 2-[3-(4-methoxyphenyl)propyl]-]", "values": [{"measurement": "Percent Increase Proliferation of hFDPCs (%)", "setting": "[1]", "value": "A (A represents less than 20% of increased proliferation of hFDPCs)"}, {"measurement": "Normalized caspase 3/7 activity", "setting": "HepG2 cells", "value": "did not exhibit any caspase activation"}, {"measurement": "micronuclei formation / genotoxic effect in TK.6 cells", "setting": "TK.6 lymphoblasts", "value": "do not promote any micronuclei formation"}]}]}
